Data published in patent US11690828B2, “Treatment of CNS diseases with sGC stimulators” (Cyclerion Therapeutics, Inc., priority 2016, dated 2023).

What was measured:
CREB = assay: pCREB phosphorylation in rat primary neurons; assay type: cell-based; settings: Primary neuron, 0.5 h, 30 μM DETA-NONOate, 30 min, 95% confidence interval 0.07 nM to 4.44 nM, read-out: EC50, phosphorylation of CREB at Ser133
Description: Compounds. Compound I-5 was dissolved in DMSO as a 10 mM solution and stored at −20° C. To achieve desired test concentrations, stock concentrations were serially diluted into DMSO and then diluted to the appropriate concentration in assay buffer.
Rat primary neurons culture. Neurons were isolated from Sprague Dawley rat embryos on embryonic day 18 (E18). Approximately 10 embryos were obtained from each rat, and whole brains were isolated from the embryos. Hippocampus and cortex were dissected from the brains under a stereoscopic microscope using two pairs of fine tweezers. The meninges were carefully removed. After dissection, the tissues were chopped and washed gently once with 10 mL of Ca^2+ and Mg^2+ free Hank's solution (HBSS, Corning cat #21-022-CM) in a 15-mL conical tube. After washing, 5 mL of a solution of 0.25% trypsin (Invitrogen cat #15090-046) and 0.1% deoxyribonuclease I (DNase I, Sigma cat #DN-25) were added to the tissues in the tube, which were then incubated at 37° C. for 15 min. […]
Assay Conditions. […] Medium was removed and cell were lysed and assay was performed according to Cisbio protocol (phospho-CREB (Ser133) catalog #64CREPEG) and the plate was read using Envision instrument (PerkinElmer).
Data Analysis. Data were analyzed with a 4-parameter fit (log(agonist) vs. response—variable slope) using GraphPad Prism Software v.7. […]

rats [1] = assay: Bennett model - paw pressure test; assay type: in vivo, rat; settings: Compound I-2 p.o. 10 mg/kg; 120 minutes after treatment
Description: (§1) Paw Pressure Test. Static mechanical hyperalgesia is measured. This test requires the application of an increasing pressure on the hind paws between a flat surface and a blunt pointer. To evaluate the analgesic action of a compound, one hind paw of the animal was inflamed by an injection or injured by ligation, while the other hind paw was not injured or inflamed. The apparatus exerted a steadily increasing force on the hind paws. The reaction threshold was determined as the pressure (g) required to elicit paw withdrawal and/or vocalization. The animals were gently handled by the experimenter and static mechanical hyperalgesia were assessed two times for both hind paws.
Bennett Model. Peripheral mononeuropathy was induced by loose ligation of the sciatic nerve in anesthetized rats (Xylazine 10 mg/kg i.p., ketamine 60 mg/kg i.p.) on D−14. Briefly, the common sciatic nerve was exposed at the level of the middle of the thigh by blunt dissection through the biceps femoris. Proximal to the sciatic trifurcation, four ligatures were loosely tied around it with about 1-mm spacing. […]
Testing: 120 minutes after treatment. […] Results are expressed for each group as a percentage of activity calculated from the mean value of the vehicle-treated animals and compared to naïve animals, control paw, or cut-off value, depending on the test.

rats [2] = assay: Acetic acid test - abdominal cramps; assay type: in vivo, rat; settings: Compound I-2 p.o. 10 mg/kg; 120 minutes after treatment
Description: Acetic Acid Test. Abdominal contraction was induced by intraperitoneal injection of 0.6% acetic acid solution in rats (10 mL/kg). The number of writhing (a twisting or contorting of the body due to pain) was recorded from the 5th to the 15th minute after injection.
(§2) Testing: 120 minutes after treatment. N=4/model/test. Results are expressed for each group as a percentage of activity calculated from the mean value of the vehicle-treated animals and compared to naïve animals, control paw, or cut-off value, depending on the test.

rats [3] = assay: Brennan model - electronic Von Frey test; assay type: in vivo, rat; settings: Compound I-2 p.o. 10 mg/kg; 120 minutes after treatment
From the text: Brennan Model. Surgery: Surgery was done under gas anesthesia (2.5% isoflurane/3 L/min). For all rats, the plantar aspect of the left hind paw was exposed and a 1 cm longitudinal incision was made using a surgical blade, through the skin and fascia of the plantar aspect of the foot, starting 0.5 cm from the proximal edge of the heel and extending toward the toes. The plantaris muscle was elevated and incised longitudinally whereas the insertions remained intact. After hemostasis with gentle pressure, the skin was stitched up with two sutures. After surgery, animals recovered in their cages.
Electronic Von Frey Test. Tactile allodynia was assessed using the electronic Von Frey test 24 h after surgery. The test requires the application of an increasing pressure onto the plantar aspect of the hind paws. The apparatus exerted a steady force on the hind paws. Reaction thresholds were determined as the pressure (g) required to elicit paw withdrawal. Each reaction threshold measurement was repeated three times for both hind paws with intervals of approximately 2 to 3 mins.
as §2

Healthy rats = Healthy rats - paw pressure test; assay type: in vivo, rat; settings: Compound I-2 p.o. 10 mg/kg; 120 minutes after treatment
Description: as §1, §2

rats [4] = assay: Carrageenan - paw pressure test; assay type: in vivo, rat; settings: Compound I-2 p.o. 10 mg/kg; 120 minutes after treatment
Description: as §1
Carrageenan. Induction: Three hours before assessment of the nociceptive threshold using the paw pressure test 100 μL of a 2% carrageenan suspension was injected into the plantar aspect of the right hind paw. The Paw Pressure test was then conducted as described above.
as §2

rats [5] = assay: Oxaliplatin - acetone test (reaction time); assay type: in vivo, rat; settings: Compound I-2 p.o. 10 mg/kg; 120 minutes after treatment
Description: Oxaliplatin. Induction: Acute peripheral neuropathy was induced by a single intraperitoneal injection of oxaliplatin (6 mg/kg, i.p) 30 hours before testing. Acetone test: Cold allodynia was measured using the acetone test. In this test, the latency of hind paw withdrawal was measured after application of a drop of acetone (50 μL) to the plantar surface of both hind paws three times for both hind paws alternatively with intervals of approximately 2-3 min.
as §2

Structure (SMILES) | EC50 (CREB) | % of activity vs. vehicle, Bennett model paw pressure test (rats [1]) | % of activity vs. vehicle, acetic acid test abdominal cramps (rats [2]) | % of activity vs. vehicle, Brennan model electronic Von Frey test (rats [3]) | % of activity vs. vehicle, healthy rats paw pressure test (Healthy rats) | % of activity vs. vehicle, carrageenan paw pressure test (rats [4]) | % of activity vs. vehicle, oxaliplatin acetone test (reaction time) (rats [5])
FC(F)(F)c1n[nH]c(-c2nc(Cc3cncnc3)c3ccccn23)n1 [Compound I-5] | 0.55 nM |  |  |  |  |  | 
Fc1ccccc1Cn1nc(-c2nc(C(F)(F)F)n[nH]2)c2cccnc21 [Compound I-2] |  | 65% | 59% | 16% | −10% | 75% | 127%
